# The supplement of paper PMC10307832
# Assays:
# Assay in all cases: relative viability (nuclei count vs DMSO), 5 days (fraction); higher = more cells survive
# H3255 = test system: H3255
# Summary of the method: (§1)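 Relative viability equals treated-well nuclei counts divided by vehicle-well nuclei counts. Counts came from 4× images of lung cancer cell lines grown in 1536-well plates for 5 days after pin-tool dosing on the day after seeding. Dosing used one drug alone or a fixed anchor-drug dose plus five library-drug doses (not always all listed) in √10 steps, and values are medians of duplicate plates.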
# NCI-H1944 = test system: NCI-H1944
# Summary of the method: as §1
# NCI-H1915 = test system: NCI-H1915
# Summary of the method: as §1
# NCI-H661 = test system: NCI-H661
# Summary of the method: as §1
# ABC-1 = test system: ABC-1
# Summary of the method: as §1
# NCI-H441 = test system: NCI-H441
# Summary of the method: as §1
# NCI-H1650 = test system: NCI-H1650
# Summary of the method: as §1
# NCI-H2087 = test system: NCI-H2087
# Summary of the method: as §1
# NCI-H2023 = test system: NCI-H2023
# Summary of the method: as §1
# BEN = test system: BEN
# Summary of the method: as §1
# CAL-12T = test system: CAL-12T
# Summary of the method: as §1
# 201T = test system: 201T
# Summary of the method: as §1
# NCI-H460 = test system: NCI-H460
# Summary of the method: as §1
# NCI-H596 = test system: NCI-H596
# Summary of the method: as §1
# NCI-H1651 = test system: NCI-H1651
# Summary of the method: as §1
# NCI-H520 = test system: NCI-H520
# Summary of the method: as §1
# LC-2-ad = test system: LC-2-ad
# Summary of the method: as §1
# NCI-H650 = test system: NCI-H650
# Summary of the method: as §1
# NCI-H727 = test system: NCI-H727
# Summary of the method: as §1
# LCLC-97TM1 = test system: LCLC-97TM1
# Summary of the method: as §1
# PC-3 [JPC-3] = test system: PC-3 [JPC-3]
# Summary of the method: as §1
# A-427 = test system: A-427
# Summary of the method: as §1
smiles,measurement,setting,value
COc1cc2nccc(Oc3ccc(NC(=O)Nc4cc(C)on4)c(Cl)c3)c2cc1OC [Tivozanib] + C[C@@H](Oc1cc(-c2cnn(C3CCNCC3)c2)cnc1N)c1c(Cl)ccc(F)c1Cl [Crizotinib] (partner 1 µM),relative viability,H3255; first compound 0.005 µM,0.799
same,relative viability,H3255; first compound 0.01581 µM,0.906
same,relative viability,H3255; first compound 0.05 µM,0.911
same,relative viability,H3255; first compound 0.1581 µM,0.777
same,relative viability,H3255; first compound 0.5 µM,0.8
same,relative viability,NCI-H1944; first compound 0.005 µM,1.13
same,relative viability,NCI-H1944; first compound 0.01581 µM,1.05
same,relative viability,NCI-H1944; first compound 0.05 µM,1.1
same,relative viability,NCI-H1944; first compound 0.1581 µM,1.02
same,relative viability,NCI-H1944; first compound 0.5 µM,1.28
same,relative viability,NCI-H1915; first compound 0.005 µM,0.863
same,relative viability,NCI-H1915; first compound 0.01581 µM,0.905
same,relative viability,NCI-H1915; first compound 0.05 µM,0.972
same,relative viability,NCI-H1915; first compound 0.1581 µM,0.924
same,relative viability,NCI-H1915; first compound 0.5 µM,0.857
same,relative viability,NCI-H661; first compound 0.005 µM,0.961
same,relative viability,NCI-H661; first compound 0.01581 µM,0.951
same,relative viability,NCI-H661; first compound 0.05 µM,1.03
same,relative viability,NCI-H661; first compound 0.5 µM,0.947
same,relative viability,ABC-1; first compound 0.005 µM,1.09
same,relative viability,ABC-1; first compound 0.01581 µM,1.12
same,relative viability,ABC-1; first compound 0.05 µM,1.09
same,relative viability,ABC-1; first compound 0.1581 µM,1.08
same,relative viability,ABC-1; first compound 0.5 µM,0.874
same,relative viability,NCI-H441; first compound 0.005 µM,0.688
same,relative viability,NCI-H441; first compound 0.01581 µM,0.676
same,relative viability,NCI-H441; first compound 0.05 µM,0.607
same,relative viability,NCI-H441; first compound 0.1581 µM,0.72
same,relative viability,NCI-H441; first compound 0.5 µM,0.666
same,relative viability,NCI-H1650; first compound 0.005 µM,0.919
same,relative viability,NCI-H1650; first compound 0.01581 µM,1.13
same,relative viability,NCI-H1650; first compound 0.05 µM,0.952
same,relative viability,NCI-H1650; first compound 0.1581 µM,1.09
same,relative viability,NCI-H1650; first compound 0.5 µM,0.866
same,relative viability,NCI-H2087; first compound 0.005 µM,0.797
same,relative viability,NCI-H2087; first compound 0.01581 µM,0.862
same,relative viability,NCI-H2087; first compound 0.05 µM,0.882
same,relative viability,NCI-H2087; first compound 0.1581 µM,0.917
same,relative viability,NCI-H2087; first compound 0.5 µM,0.668
same,relative viability,NCI-H2023; first compound 0.005 µM,0.555
same,relative viability,NCI-H2023; first compound 0.01581 µM,0.717
same,relative viability,NCI-H2023; first compound 0.05 µM,0.657
same,relative viability,NCI-H2023; first compound 0.1581 µM,0.645
same,relative viability,NCI-H2023; first compound 0.5 µM,0.546
same,relative viability,BEN; first compound 0.005 µM,0.966
same,relative viability,BEN; first compound 0.01581 µM,0.865
same,relative viability,BEN; first compound 0.05 µM,0.647
same,relative viability,BEN; first compound 0.5 µM,1.01
same,relative viability,CAL-12T; first compound 0.005 µM,0.649
same,relative viability,CAL-12T; first compound 0.01581 µM,0.552
same,relative viability,CAL-12T; first compound 0.05 µM,0.568
same,relative viability,CAL-12T; first compound 0.5 µM,0.614
same,relative viability,201T; first compound 0.005 µM,0.981
same,relative viability,201T; first compound 0.01581 µM,1.04
same,relative viability,201T; first compound 0.05 µM,1.06
same,relative viability,201T; first compound 0.1581 µM,1
same,relative viability,201T; first compound 0.5 µM,1.04
same,relative viability,NCI-H460; first compound 0.005 µM,0.889
same,relative viability,NCI-H460; first compound 0.01581 µM,1.09
same,relative viability,NCI-H460; first compound 0.05 µM,0.96
same,relative viability,NCI-H460; first compound 0.1581 µM,0.935
same,relative viability,NCI-H460; first compound 0.5 µM,0.897
same,relative viability,NCI-H596; first compound 0.005 µM,0.947
same,relative viability,NCI-H596; first compound 0.01581 µM,0.903
same,relative viability,NCI-H596; first compound 0.05 µM,0.961
same,relative viability,NCI-H596; first compound 0.1581 µM,0.861
same,relative viability,NCI-H596; first compound 0.5 µM,0.966
same,relative viability,NCI-H1651; first compound 0.005 µM,0.896
same,relative viability,NCI-H1651; first compound 0.01581 µM,0.91
same,relative viability,NCI-H1651; first compound 0.05 µM,0.796
same,relative viability,NCI-H1651; first compound 0.1581 µM,0.84
same,relative viability,NCI-H1651; first compound 0.5 µM,0.92
same,relative viability,NCI-H520; first compound 0.005 µM,0.822
same,relative viability,NCI-H520; first compound 0.01581 µM,0.827
same,relative viability,NCI-H520; first compound 0.05 µM,0.895
same,relative viability,NCI-H520; first compound 0.1581 µM,0.713
same,relative viability,NCI-H520; first compound 0.5 µM,0.603
same,relative viability,LC-2-ad; first compound 0.005 µM,0.413
same,relative viability,LC-2-ad; first compound 0.01581 µM,0.426
same,relative viability,LC-2-ad; first compound 0.05 µM,0.522
same,relative viability,LC-2-ad; first compound 0.1581 µM,0.468
same,relative viability,LC-2-ad; first compound 0.5 µM,0.347
same,relative viability,NCI-H650; first compound 0.005 µM,0.596
same,relative viability,NCI-H650; first compound 0.01581 µM,0.906
same,relative viability,NCI-H650; first compound 0.05 µM,0.891
same,relative viability,NCI-H650; first compound 0.1581 µM,0.696
same,relative viability,NCI-H650; first compound 0.5 µM,0.455
same,relative viability,NCI-H727; first compound 0.005 µM,0.72
same,relative viability,NCI-H727; first compound 0.01581 µM,0.843
same,relative viability,NCI-H727; first compound 0.05 µM,0.833
same,relative viability,NCI-H727; first compound 0.5 µM,0.869
same,relative viability,LCLC-97TM1; first compound 0.005 µM,0.224
same,relative viability,LCLC-97TM1; first compound 0.01581 µM,0.302
same,relative viability,LCLC-97TM1; first compound 0.1581 µM,0.365
same,relative viability,LCLC-97TM1; first compound 0.5 µM,0.46
same,relative viability,PC-3 [JPC-3]; first compound 0.005 µM,0.912
same,relative viability,PC-3 [JPC-3]; first compound 0.01581 µM,0.997
same,relative viability,PC-3 [JPC-3]; first compound 0.05 µM,0.991
same,relative viability,PC-3 [JPC-3]; first compound 0.1581 µM,1.02
same,relative viability,PC-3 [JPC-3]; first compound 0.5 µM,1.02
same,relative viability,A-427; first compound 0.005 µM,0.82
same,relative viability,A-427; first compound 0.01581 µM,0.84
same,relative viability,A-427; first compound 0.05 µM,0.986
same,relative viability,A-427; first compound 0.1581 µM,0.818
same,relative viability,A-427; first compound 0.5 µM,0.827
